Reference: US6696407B1, “Huntington's disease treatment comprising administering aldose reductase inhibitors to increase striatal CNTF” (The Regents of the University of California, priority 1997, dated 2004)
Marks after values point to notes of the source that are not given here.

Key:
Type in all cases: in vivo, rat
[1] = Motor nerve conduction velocity (MNCV); conditions: Ponalrestat 50 mg/kg daily oral, two months
Protocol: These studies were conducted with the approval of the San Diego Veterans Administration Animal Studies Subcommittee. Female Sprague-Dawley rats (240-300 g; Charles River, San Diego, Calif.) were housed in cages with wire bottoms to reduce contact with urine and feces. Groups were established and fed either a 40% D-galactose diet or a control diet specially formulated by Purina that contained 40% solka floc, a nonnutritive fiber, to balance nutritional intake. All diets contained 100% of the micronutrients required by rats and, with water, were available ad libitum. Each of these diet groups contained animals that were treated with the ARI, Ponalrestat (50 mg/kg), daily by oral gavage. […] Under deep anesthesia, motor nerve conduction velocity (MNCV) was measured in the left hindlimb prior to removal of the sciatic nerve. […] Evoked responses were recorded with needle electrodes placed in the interosseous muscles of the ipsilateral foot, amplified (×100) with a P15 AC Amplifier (Grass Instruments Co, Quincy, Mass.) and recorded on a 5110 Storage Oscilloscope and 5D10 Waveform Digitizer (Tektronix, Inc., Beaverton, Oreg.). […] Data are presented as mean ±SD (N=8 to 10) and were analyzed with a one way ANOVA after which multiple comparisons were made with the Student-Newman-Keuls test. […] ARI-treated animals received a daily oral gavage (50 mg/kg) of Ponalrestat (ND-Not detected).

CNTF [2] = experiment: CNTF-like bioactivity of sciatic nerve homogenates (24 hour survival of E8CG neurons)
Protocol: (§1) These studies were conducted with the approval of the San Diego Veterans Administration Animal Studies Subcommittee. Female Sprague-Dawley rats (240-300 g; Charles River, San Diego, Calif.) were housed in cages with wire bottoms to reduce contact with urine and feces. Groups were established and fed either a 40% D-galactose diet or a control diet specially formulated by Purina that contained 40% solka floc, a nonnutritive fiber, to balance nutritional intake. All diets contained 100% of the micronutrients required by rats and, with water, were available ad libitum. Each of these diet groups contained animals that were treated with the ARI, Ponalrestat (50 mg/kg), daily by oral gavage. After two months, rats were anesthetized by intraperitoneal injection (1 ml/kg ip) of pentobarbital sodium (12.5 mg/ml) and diazepam (1.25 mg/ml) in bacteriostatic saline. Under deep anesthesia, motor nerve conduction velocity (MNCV) was measured in the left hindlimb prior to removal of the sciatic nerve. The proximal portion was processed for subsequent light microscopic examination and the distal portion used for gas chromatographic analysis of nerve polyols. The contralateral sciatic nerve was removed and used for assay of CNTF-like neurotrophic activity and either Northern blot or ELISA analysis of CNTF mRNA or protein, respectively.
Bioassays were performed on extracts of sciatic nerve as described previously by Calcutt et al. (1992) Brain Res. 575:320-324. Briefly, 4 mm segments were homogenized in cold Hank's balanced salt solution, centrifuged and the soluble supernatant aspirated. An aliquot of the supernatant was used to determine the amount of protein using the Bradford assay. The remaining supernatant was used to assay CNTF-like activity by the ability to support the 24 hour survival of day eight embryonic chick ciliary ganglia (E8CG) neurons. E8CG neurons were obtained from chick ciliary ganglia after trypsin treatment and trituration in Dulbecco's Modified Eagle's Medium plus 10% fetal calf serum (DMEM+10% FCS). After seeding onto a tissue culture dish for 2.5 hours to allow attachment of nonneuronal cells, unattached neurons were collected, counted and added to 96-well microtiter plates (500 neurons/well) precoated with polyornithine and laminin. Nerve homogenates were serially diluted in DMEM+10% FCS, added to the microtiter plates and incubated for 24 hours. A dose-response curve using rat recombinant CNTF was used as a standard and to establish the maximum CNTF effect for each assay. […] Cells were then fixed and the number of surviving, intact, blue-staining cells counted using phase contrast microscopy. […]

CNTF [3] = experiment: Sciatic nerve CNTF protein by ELISA; conditions: P<0.05
Protocol: as §1, with “The proximal portion was processed for subsequent light microscopic examination and the distal portion used for gas chromatographic analysis of nerve polyols. The contralateral sciatic nerve was removed and used for assay of CNTF-like neurotrophic activity and either Northern blot or ELISA analysis of CNTF mRNA or protein, respectively.” left out
CNTF protein was determined with an ELISA that utilizes a monoclonal capture antibody which recognizes a non-C-terminal epitope on both rat and human CNTF (Regeneron, Tarrytown, N.Y.). […] The reaction was stopped with 0.5 N H2SO4 and the plates read at two wavelengths (490 nm and 650 nm).

O=C(O)Cc1nn(Cc2ccc(Br)cc2F)c(=O)c2ccccc12 [Ponalrestat, 3-(4-bromo-2-fluorobenzyl)-4-oxo-3H-phthalazin-1-ylacetic acid]
MNCV ([1]; 40% D-galactose diet rats): 64.8 ± 5.1^a m/s
MNCV ([1]; control diet rats): 63.9 ± 4.0^a m/s
Increase of CNTF associated activity compared to normal rats that did not receive any ARI (CNTF [2]; normal rats, survival of embryonic chick ciliary ganglia neurons): two and one-half fold increase
Increase of CNTF-like bioactivity (TU/ml) compared to untreated control animals (CNTF [2]; sciatic nerve, control diet rats, 50 mg/kg daily oral, two months): ~250%
CNTF-like bioactivity relative to control levels (CNTF [2]; sciatic nerve, galactose-fed rats with ARI): not restored to control levels
Increase of CNTF-like bioactivity (TU/ml) compared to the untreated galactose group (CNTF [2]; sciatic nerve, galactose-fed rats, 50 mg/kg daily oral, two months, P<0.05): 60%
Increase of CNTF detected by ELISA relative to untreated control rats (CNTF [3]; control animals): 50%
Increase of CNTF detected by ELISA relative to untreated control rats (CNTF [3]; galactose-fed animals): 50%
